Measurements: the NIST ThermoML archive (doi:10.1016/j.jct.2012.05.003)

Assay: molar heat capacity at saturation pressure
Details: Vacuum adiabatic calorimetry

O=C1c2ccccc2-c2ccccc21 [9(9H)-fluorenone]
molar heat capacity [J/K/mol]
Details	Crystal	Liquid
4.566 K	0.46	–
5 K	0.6	–
5.528 K	0.77	–
6.434 K	1.22	–
7.474 K	1.88	–
8.581 K	2.71	–
9.685 K	3.71	–
10 K	4.02	–
10.85 K	4.87	–
12.11 K	6.26	–
13.44 K	7.86	–
14.97 K	9.678	–
16.65 K	11.82	–
18.49 K	14.15	–
20 K	16.01	–
20.45 K	16.55	–
22.62 K	19.26	–
25.08 K	22.19	–
27.79 K	25.34	–
30 K	27.82	–
30.74 K	28.64	–
33.98 K	32.05	–
37.55 K	35.61	–
40 K	37.94	–
41.59 K	39.4	–
46.13 K	43.45	–
50 K	46.83	–
51.2 K	47.85	–
56.87 K	52.2	–
56.9 K	52.18	–
60 K	54.38	–
62.55 K	56.09	–
62.62 K	56.16	–
68.7 K	60.3	–
70 K	61.14	–
72.85 K	62.96	–
75.63 K	64.74	–
80 K	67.46	–
83.16 K	69.38	–
84.2 K	70.02	–
90 K	73.43	–
91.53 K	74.32	–
92.55 K	74.86	–
100 K	79.14	–
100.6 K	79.46	–
101.73 K	80.16	–
109.97 K	84.81	–
119.46 K	90.1	–
120 K	90.41	–
129.35 K	95.77	–
139.36 K	101.53	–
140 K	101.91	–
149.34 K	107.42	–
159.36 K	113.33	–
160 K	113.73	–
169.39 K	119.4	–
179.42 K	125.52	–
180 K	125.91	–
189.44 K	131.93	–
199.45 K	138.28	–
200 K	138.65	–
209.47 K	144.93	–
219.38 K	151.48	–
220 K	151.91	–
229.4 K	158.17	–
239.49 K	164.92	–
240 K	165.3	–
249.56 K	172.03	–
259.56 K	178.91	–
260 K	179.23	–
269.56 K	185.84	–
279.57 K	192.92	–
280 K	193.1	–
289.32 K	199.64	–
296.08 K	204.14	–
298.15 K	205.82	–
299.29 K	206.68	–
300 K	207.11	–
305.5 K	210.87	–
308.47 K	212.74	–
309.21 K	213.37	–
315.7 K	218.21	–
316.59 K	218.89	–
320 K	221.01	–
324.75 K	224.49	–
325.3 K	224.82	–
332.95 K	230.04	–
335.34 K	231.75	–
340 K	235.18	282.8
340.05 K	–	282.82
341.17 K	235.83	–
345.34 K	238.85	–
349.26 K	–	287
349.41 K	242.52	–
356.52 K	247.86	290.4
359.51 K	–	291.82
360 K	–	291.97
363.97 K	–	293.73
364.32 K	–	293.78
367.03 K	–	295.01
373.93 K	–	298.26
380 K	–	301.01
386.08 K	–	303.75
398.35 K	–	309.31
400 K	–	310.04
410.74 K	–	314.78
420 K	–	318.92
423.26 K	–	320.37
435.5 K	–	325.69
440 K	–	327.65
447.89 K	–	331.01
460 K	–	336.07
460.14 K	–	336.12
472.54 K	–	341.25
477.16 K	–	343.14
480 K	–	344.22
487.83 K	–	347.32
490.73 K	–	348.64
499.62 K	–	352.16
500 K	–	352.28
505.44 K	–	354.68
509.99 K	–	356.21
518.82 K	–	359.99
519.26 K	–	360.18
520 K	–	360.47
